Measurements reported in patent US20210015793A1, “COMPOUNDS FOR TREATING CNS- AND NEURODEGENERATIVE DISEASES” (ETH ZURICH, priority 2018, published 2021).
Entries after “also recorded” stand apart in the source; their conditions may differ.

What was measured:
Assay type in all cases: in vivo, mouse
Tg2576 AD mice [1] = assay: Hippocampal hyperphosphorylated PHF tau by direct binding assay with [125I]-labeled AT8 antibody, Tg2576 mice subjected to CUMS; details: 15-month-old Tg2576 mice, 3 months of CUMS with treatment, vs untreated stressed controls
Excerpt: For a genetic model of familial AD (FAD), Tg2576 mice (Taconic Biosciences, Rensselaer, N.Y., USA) were used with neuron-specific overexpression of human APPSwe, i.e the Swedish mutation of APP695 isolated from a Swedish family with FAD featuring the double mutation K670N/M671L (Hsiao et al., Science 274, 99-103 (1996)). As a genetic model of tauopathy, the Tg-TauP301L mice (Model 2508, Taconic Biosciences, Rensselaer, N.Y., USA) with neuron-specific expression of the most common FTDP-17 (frontotemporal dementia and parkinsonism linked to chromosome 17) mutation (Lewis et al., Nature Genetics 25, 402-405 (2000)) were used. […]
Neuronal cell loss and hyperphosphorylated PHF Tau were determined in hippocampi of 15 months-old Tg2576 mice, which were treated without or with Compound-1 and Compound-4 for three months during the neurodegeneration-enhancing CUMS (chronic unpredictable mild stress) protocol. Neuronal cell loss was determined with crude homogenates of dissected hippocampi by direct binding assay with the neuron-specific [125]-labeled anti-NeuN antibody (MAB377, clone A60, EMD Millipore, Merck KGaA, Darmstadt, Germany). Similarly, the neuronal cell loss-causing PHF tau hyperphosphorylation was quantified with [125]-labeled AT8 antibody. […]

Tg2576 AD mice [2] = assay: SDS-insoluble hippocampal Abeta1-40 and Abeta1-42 by sandwich ELISA in Tg2576 mice; details: 18 months-old Tg2576 mice, 6 months of treatment, 8 mg/kg/d in drinking water
Description: (§1) For quantitative analysis of SDS-insoluble hippocampal contents of Abeta1-40 and Abeta1-42, hippocampi were dissected out from brains isolated on ice from 18-month-old Tg2576 mice without and with treatment for 6 months with Compound-1 and Compound-4. Isolated hippocampi were pulverized under liquid nitrogen, and SDS-insoluble Abeta peptides were extracted by serial extraction in 14 microL/mg wet weight of Tris buffer (50 mM Tris, 200 nM NaCl, 2 mM EDTA, pH 7.2, supplemented with 1× protease inhibitors/1× phosphatase inhibitors), followed by extraction with Triton X-100-containing buffer (Tris extraction buffer with 0.1% Triton X-100), and followed by extraction with 2% SDS. The remaining pellet was extracted with formic acid (70% formic acid in Tris buffer supplemented with 1× protease inhibitors/1× phosphatase inhibitors). The resulting formic-acid extract was neutralized with 1 M Tris buffer, pH 11, and used for quantitative determination of Abeta1-40 and Abeta1-42 by sandwich ELISA relative to a standard curve according to the protocol of the manufacturer (KHB3481 and KHB3441, Thermo Fisher Scientific, Waltham, Mass., USA).
as §1, with “mM” for “nM”, “and with” for “relative to”

female B6 mice = assay: Aging-induced decrease in fertility in female B6 mice; details: 8 mg/kg/d in drinking water from 3 to 21 months of age, vs untreated controls
Description: (A,B) Treatment of B6 mice with Compound-1 (A) and Compound-1F (B) at a daily dose of 8 mg/kg/d in drinking water was started at an age of 3 months and continued until the end of the observation period at 21 months. The age of the male breeder(s) was <10 months. The number of offspring per month is given (±s.d.; n=5; p=0.0167 for Compound-1, and p=0.0032 for Compound-1F compared to untreated controls; unpaired, two-tailed Student's t-test).

male B6 mice = assay: Aging-induced deterioration of male sperm quality in B6 mice; details: 18-month-old male B6 mice, 15 months treatment

Row | Compound | hippocampal content of hyperphosphorylated PHF Tau (AT8 binding) (Tg2576 AD mice [1]) | hippocampal content of Abeta1-40 (Tg2576 AD mice [2]) | hippocampal content of Abeta1-42 (Tg2576 AD mice [2]) | female fertility (number of offspring per month) (female B6 mice) | aging-induced epididymal degeneration (H&E sections of cauda epididymis) (male B6 mice)
1 | O=C(C1=C(O)C(c2ccc(F)cc2)N(c2ccc3c(c2)OCO3)C1=O)C1CC1 (stereo not shown) [Compound-1F, 1-(1,3-Benzodioxol-5-yl)-4-(cyclopropanecarbonyl)-2-(4-fluorophenyl)-3-hydroxy-2H-pyrrol-5-one] | retarded | significantly decreased | significantly decreased | retarded aging-induced decrease in fertility | prevented
2 | O=C(C1=C(O)C(c2ccccc2)N(c2ccc3c(c2)OCO3)C1=O)C1CC1 (stereo not shown) [Compound-1, 1-(1,3-benzodioxol-5-yl)-4-(cyclopropane-carbonyl)-3-hydroxy-2-phenyl-2H-pyrrol-5-one] | retarded; also recorded: significantly decreased hippocampal content of hyperphosphorylated PHF Tau | significantly decreased | significantly decreased | retarded aging-induced decrease in fertility | prevented
